# Data from paper PMC5943252, “Contrasting roles for actin in the cellular uptake of cell penetrating peptide conjugates” (Scientific Reports, 2018).
# Assays:
# A431 cells [1] = test: Flow cytometry of cellular uptake of EGFP-R8 in the presence of actin inhibitors; type: cell-based; settings: for Normalised Fluoresence Intensity (EGFP-R8): three independent experiments
# Protocol: A431 cells were seeded onto 12-well plates and cultured for 24 hr to be ~80% confluent on the day of experiment. Cells were washed twice with PBS and then incubated with diluent control (DMSO/dH2O) or actin inhibitors as previously described. They were then loaded with serum-free DMEM containing either 2 µM EGFP-R8, 5 µg/ml TF-647 or 0.1 mg/ml Dex-647 in the presence or absence of actin inhibitors for times stipulated in the figure legends. The plates were then placed on ice to prevent further uptake and washed 3x with either ice-cold PBS or 0.5 mg/ml heparin in PBS. To remove the plasma membrane bound TF, cells were washed 3x with ice-cold PBS followed by an incubation for 1 min in ice-cold acid wash (0.2 M acetic acid, 0.2 M NaCl, pH 2.0)[33]. All cells were then washed twice with PBS at room temperature before trypsinisation at 37 °C for 5 min before placing the detached cells in centrifuge tubes and centrifuging at 4 °C for 3 min at 800 × g. The obtained cell suspension was washed 3x with ice-cold PBS and finally resuspended in 300 µl ice-cold PBS for measurement of cell-associated fluorescence (cell gate 50,000 cells) by flow cytometry on a BD FACSVerse utilising a 488 laser and 527/32 filter for EGFP analysis and a 633 nm laser and 660/10 filter for Alexa 647. Cells were gated using FSC-A/SSC-A to isolate single cell populations and analysed using FlowJo.
# Flow cytometry measurements represent the mean fluorescence from three independent experiments performed in duplicate, where each individual data point was the geometric mean. A two-tailed unpaired Students t-test was used to test for differences within experiments. Significant differences were classed as having a P value of < 0.05.
# [2] = system: actin architecture in A431 cells; test: Actin cytoskeleton visualisation (Rh-P staining, confocal microscopy); type: cell-based; settings: A431 cells, Rh-P staining; for effect on actin cytoskeleton: 30 min; for effect on organisation of the actin cytoskeleton: 4 hr
# Protocol: Analysis was performed on a Leica SP5 confocal laser scanning microscope, equipped with laser lines: 405 Blue Diode (Excitation wavelength 405 nm for Hoechst 33342) Argon (Excitation wavelength 488 nm for Alexa 488 or EGFP), Helium Neon Laser 1 (Excitation wavelength 543 nm for Tetramethyl-Rhodamine Phalloidin (Rh-P)) and Laser 2 (Excitation wavelength 633 nm for Alexa 647 conjugates). All images presented in this study were obtained using a HCX PL APO 63x 1.4 NA oil immersion objective with Leica Type F immersion oil. Parameters “Gain” and “Off-set” of the individual photomultiplier tubes were adjusted between experiments in order to obtain optimal image acquisition avoiding saturation. For multi-channel image acquisition, the channels were scanned in a sequential recording mode to avoid spectral cross-talk caused by overlapping excitation and/or emission spectra of fluorophores. Acquisition mode “XYZ” and image resolutions (pixels/image) of 512 × 512 or 1024 × 1024 were selected and pinhole size was set to 1 Airy Unit. Depending on acquisition requirements the scan speed was set as either 400 or 700 Hz and for single section images, the same optical section was scanned 3x to generate a line average image. Captured images were then analysed using ImageJ. In some cases (live cell imaging) the same cells were also imaged using […] microscopy (DIC).
# A recently described method was utilised giving information on actin architecture at different regions of the cells termed basal and cell body and apex (CBA). For actin staining, HeLa (0.5 × 10^6 cells/well) or A431 (1.0 × 10^6 cells/well) cells in 2.5 mL D-MEM containing 10% FBS were seeded on round borosilicate No.1.5 cover slips in 6 –well plates and allowed to adhere for 24 hr at 37 °C/5% CO2, to reach a confluence of ~80%. The cells were then treated with actin disrupters as described above, washed 3x with PBS and fixed for 15 min at room temperature with 3% PFA in PBS. Cells were then washed 3x with PBS and permeabilised with 0.2% Triton X-100 in PBS at room temperature for 5 min, washed 3x with PBS and stained for cell nuclei with 1.0 µg/ml Hoechst 33342 in PBS and for polymerised actin with 1.0 µg/ml Rh-P in PBS for 15 min at room temperature. The cells were finally washed 3x with PBS and once with distilled water, coverslips were mounted in DAKO mounting medium on glass microscope slides and imaged by confocal microscopy.
# A431 cells [3] = test: Live cell confocal microscopy of uptake of endocytic probes and R8 conjugates, with or without actin inhibitors; type: cell-based; settings: 0.5 µM Lat B, 30 min preincubation, then 2 µM EGFP-R8 for 1 hr with Lat B
# Protocol: HeLa or A431 cells were seeded on 35 mm MatTek dishes (Ashland, US) at respective densities of 5 × 10^5 cells/dish and 1.0 × 10^6 cells/dish and maintained in 2.5 mL D-MEM containing 10%, 100 IU/mL penicillin and 100 µg/mL streptomycin. Cells were then allowed to adhere for 24 hr at 37 °C/5% CO2 to reach a confluence of ~80%. On the day of experimentation, they were washed with PBS and then incubated with 100 µl serum-free D-MEM (thus reducing well described serum binding effects[32]) containing either 2 µM CPP conjugate (R8-Alexa488 or EGFP-R8), 5 µg/ml transferrin-Alexa 647 (TF-647) or 0.1 mg/ml dextran (10 kDa)-Alexa 647 (Dex-647). The cells were then incubated for 1 hr (or 30 min for TF-647) at 37 °C/5% CO2 before washing 3x with PBS (TF-647 or Dex-647) or PBS 0.5 mg/mL heparin (R8-conjugates). They were then washed once with PBS, prior to the addition of 2 mL of imaging medium (phenol red free RPMI, 20 mM HEPES pH 7.4) and analysis by live cell confocal microscopy.
# Cells were seeded on MatTek dishes as previously described and were washed with PBS before preincubation at 37 °C with diluent control (DMSO) or actin inhibitors: 10 µM Cyt D for 15 min; 0.1–1 µM Lat B for 30 min; 0.2–4 µM JAS for 45 min; 50–100 µM Y27632 for 4 hr in serum-free D-MEM at 37 °C/5% CO2. Endocytic probes (TF-647, Dex-647) or R8-conjugates were then incubated with the cells in the absence (control) or presence of the inhibitors and further incubated at 37 °C/5% CO2 for times specified in figure legends prior to analysis by confocal microscopy. For pulse chase experiments, A431 cells were incubated with 0.1 mg/ml Dex-647 for 2 hr (pulse) followed by washing and a further 4 hr (chase) in fresh complete growth medium. EGFP-R8 (2 µM) was then added for 1 hr in the absence or presence of 10 µM Cyt D. EGFP-R8 and Dex-647 subcellular distribution was then analysed in live cells using confocal microscopy. For low temperature experiments, cells were preincubated with Cyt D as above and then placed on ice for 2 min prior to addition of ice cold EGFP-R8. The cells were then maintained under these conditions for 1 hr prior to analysis by confocal microscopy.
# Analysis was performed on a Leica SP5 confocal laser scanning microscope, equipped with laser lines: 405 Blue Diode (Excitation wavelength 405 nm for Hoechst 33342) Argon (Excitation wavelength 488 nm for Alexa 488 or EGFP), Helium Neon Laser 1 (Excitation wavelength 543 nm for Tetramethyl-Rhodamine Phalloidin (Rh-P)) and Laser 2 (Excitation wavelength 633 nm for Alexa 647 conjugates). All images presented in this study were obtained using a HCX PL APO 63x 1.4 NA oil immersion objective with Leica Type F immersion oil. Parameters “Gain” and “Off-set” of the individual photomultiplier tubes were adjusted between experiments in order to obtain optimal image acquisition avoiding saturation. For multi-channel image acquisition, the channels were scanned in a sequential recording mode to avoid spectral cross-talk caused by overlapping excitation and/or emission spectra of fluorophores. Acquisition mode “XYZ” and image resolutions (pixels/image) of 512 × 512 or 1024 × 1024 were selected and pinhole size was set to 1 Airy Unit. Depending on acquisition requirements the scan speed was set as either 400 or 700 Hz and for single section images, the same optical section was scanned 3x to generate a line average image. Captured images were then analysed using ImageJ. […]
# macrophages = settings: cited from earlier work
# Text: Through interaction with the Rho GTPase, ROCKs play a central role in actin network assembly and membrane association. In A431 cells the effects of Y27632 on the actin cytoskeleton was more subtle than that observed with the agents that directly targeted actin. […] In contrast to results o ...
Structure (SMILES),"fold increase in uptake (EGFP-R8) (A431 cells [1]; 0.5 µM Lat B, 30 min preincubation, then 2 µM EGFP-R8 for 1 hr with Lat B, heparin wash, vs diluent control, P = 0.0045) [fold]","Normalised Fluoresence Intensity (EGFP-R8) (A431 cells [1]; 0.5 µM Lat B, 30 min preincubation, then 2 µM EGFP-R8 for 1 hr with Lat B, mean of geometric means)","effect on actin cytoskeleton ([2]; 0.1 μM Lat B, basal and CBA sections)",effect on actin cytoskeleton ([2]; 0.5 μM Lat B),effect on actin cytoskeleton ([2]; 1 μM Lat B),effect on cell associated EGFP-R8 fluorescence (A431 cells [3]),"inhibition of cell uptake of EGFP-R8 (A431 cells [1]; 100 µM Y27632, 4 hr preincubation, then 2 µM EGFP-R8 for 1 hr with Y27632, P = 0.02)","Normalised Fluoresence Intensity (EGFP-R8) (A431 cells [1]; 100 µM Y27632, 4 hr preincubation, then 2 µM EGFP-R8 for 1 hr with Y27632, mean of geometric means)",inhibition of uptake of 70 KDa dextran (macrophages),effect on organisation of the actin cytoskeleton ([2]; Y27632 1 and 10 μM (up to 10 μM)),"effect on organisation of the actin cytoskeleton ([2]; Y27632 at higher concentrations (50, 100 μM))"
"C/C1=C/C(=O)O[C@@H]2C[C@@H](CC[C@H](C)/C=C\CC1)O[C@@](O)([C@@H]1CSC(=O)N1)C2 [Lat B, Latrunculin B]",6.23,6.23,formation of small actin aggregates,these aggregates were extremely prominent,major disruption of the actin organisation,much higher fluorescence compared to controls,–,–,–,–,–
"C[C@@H](N)[C@H]1CC[C@H](C(=O)Nc2ccncc2)CC1.Cl.Cl (relative stereo) [Y27632, (+)-(R)-trans-4-(1-aminoethyl)-N-(4-pyridyl) cyclohexanecarboxamide dihydrochloride]",–,–,–,–,–,–,~ 20%,0.77,~ 50%,no visible changes in the organisation of the actin cytoskeleton,extensive actin deformities
